From the supplement of paper PMC10307832

How the values were obtained:
Assay in all cases: relative viability (nuclei count vs DMSO), 5 days (fraction); higher = more cells survive
[1] = compound: C[As](C)SC[C@H](NC(=O)CC[C@H](N)C(=O)O)C(=O)NCC(=O)O [Darinaparsin] + Nc1nc2[nH]cc(CCc3ccc(C(=O)N[C@@H](CCC(=O)O)C(=O)O)cc3)c2c(=O)[nH]1 [Pemetrexed] (partner 0.2 µM)
Procedure, shortened: (§1)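 One day after seeding in 1536-well plates, lung cancer cell lines were dosed by pin tool. Dosing was either single-drug or a fixed anchor-drug dose plus five library-drug doses (not always all listed) in √10 steps. After 5 days, nuclei were stained in one fix-and-stain step and counted on 4× images, and relative viability is the nuclei count of treated wells over that of vehicle wells, given as the median of duplicate plates.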

Darinaparsin + Dasatinib = compound: C[As](C)SC[C@H](NC(=O)CC[C@H](N)C(=O)O)C(=O)NCC(=O)O [Darinaparsin] + Cc1nc(Nc2ncc(C(=O)Nc3c(C)cccc3Cl)s2)cc(N2CCN(CCO)CC2)n1 [Dasatinib] (partner 0.075 µM)
Procedure, shortened: as §1

AZ628 + Pemetrexed = compound: CC1=C(C=C(C=C1)NC(=O)C2=CC(=CC=C2)C(C)(C)C#N)NC3=CC4=C(C=C3)N=CN(C4=O)C [AZ628] + Nc1nc2[nH]cc(CCc3ccc(C(=O)N[C@@H](CCC(=O)O)C(=O)O)cc3)c2c(=O)[nH]1 [Pemetrexed] (partner 0.2 µM)
Procedure, shortened: as §1

QS11 + Tozasertib = compound: C1CC2=C(C1)C=C(C=C2)OC3=NC(=C4C(=N3)N(C=N4)CC5=CC=C(C=C5)C6=CC=CC=C6)N[C@@H](CC7=CC=CC=C7)CO [QS11] + Cc1cc(Nc2cc(N3CCN(C)CC3)nc(Sc3ccc(NC(=O)C4CC4)cc3)n2)n[nH]1 [Tozasertib] (partner 0.1 µM)
Procedure, shortened: as §1

Row | Cell Line | relative viability ([1]; first compound 0.08 µM) | relative viability ([1]; first compound 0.8 µM) | relative viability ([1]; first compound 2.53 µM) | relative viability ([1]; first compound 8 µM) | relative viability (Darinaparsin + Dasatinib; first compound 0.08 µM) | relative viability (Darinaparsin + Dasatinib; first compound 0.8 µM) | relative viability (Darinaparsin + Dasatinib; first compound 2.53 µM) | relative viability (Darinaparsin + Dasatinib; first compound 8 µM) | relative viability (AZ628 + Pemetrexed; first compound 0.08 µM) | relative viability (AZ628 + Pemetrexed; first compound 0.253 µM) | relative viability (AZ628 + Pemetrexed; first compound 0.8 µM) | relative viability (AZ628 + Pemetrexed; first compound 2.53 µM) | relative viability (AZ628 + Pemetrexed; first compound 8 µM) | relative viability (QS11 + Tozasertib; first compound 0.08 µM) | relative viability (QS11 + Tozasertib; first compound 0.253 µM) | relative viability (QS11 + Tozasertib; first compound 0.8 µM) | relative viability (QS11 + Tozasertib; first compound 2.53 µM) | relative viability (QS11 + Tozasertib; first compound 8 µM)
1 | NCI-H1975 | 0.328 | 0.301 | 0.291 | 0.319 | 0.42 | 0.404 | 0.388 | 0.386 | 0.333 | 0.257 | 0.27 | 0.287 | 0.259 | 0.823 | 1.01 | 0.585 | 0.408 | 0.225
2 | BEN | 0.873 | 0.848 | 0.818 | 0.859 | 0.305 | 0.308 | 0.31 | 0.371 | 0.776 | 0.614 | 0.737 | 0.716 | 0.749 | 0.441 | 0.529 | 0.504 | 0.485 | 0.486
3 | NCI-H1437 | 0.34 | 0.371 | 0.301 | 0.329 | 0.482 | 0.375 | 0.286 | 0.48 | 0.332 | 0.293 | 0.292 | 0.296 | 0.294 | 0.44 | 0.45 | 0.398 | 0.344 | 0.304
4 | NCI-H1734 | 0.421 | 0.389 | 0.442 | 0.466 | 0.461 | 0.441 | 0.44 | 0.49 | 0.375 | 0.423 | 0.397 | 0.391 | 0.34 | 0.25 | 0.273 | 0.28 | 0.246 | 0.316
5 | NCI-H596 | 0.513 | 0.533 | 0.479 | 0.508 | 0.624 | 0.625 | 0.632 | 0.566 | 0.496 | 0.485 | 0.521 | 0.525 | 0.521 | 0.875 | 0.879 | 0.923 | 0.93 | 1.13
6 | LOU-NH91 | 0.414 | 0.431 | 0.314 | 0.384 | 0.632 | 0.512 | 0.49 | 0.622 | 0.345 | 0.384 | 0.332 | 0.36 | 0.339 | 0.67 | 0.647 | 0.629 | 0.597 | 0.572
7 | NCI-H2342 | 0.785 | 0.782 | 0.743 | 0.841 | 0.358 | 0.302 | 0.296 | 0.312 | 0.89 | 0.683 | 0.761 | 0.702 | 0.793 | 0.479 | 0.46 | 0.62 | 0.474 | 0.436
8 | NCI-H522 | 0.916 | 1.04 | 1.01 | 1.14 | 0.853 | 0.902 | 0.804 | 0.918 | 0.903 | 1.02 | 0.874 | 0.93 | 0.645 | 0.494 | 0.616 | 0.47 | 0.627 | 1.58
9 | SK-MES-1 | 1.17 | 0.924 | 0.924 | 1.12 | 0.284 | 0.258 | 0.344 | 0.345 | 0.867 | 0.915 | 0.844 | 0.91 | 0.59 | 1.04 | 0.906 | 0.833 | 0.905 | 0.745
10 | UMC-11 | 0.884 | 0.863 | 0.778 | 0.878 | 0.711 | 0.473 | 0.401 | 0.578 | 0.818 | 0.799 | 0.79 | 0.763 | 0.814 | 0.174 | 0.27 | 0.182 | 0.181 | 0.184
11 | LK-2 | 0.24 | – | 0.286 | 0.329 | 0.201 | – | 0.301 | 0.274 | 0.273 | 0.221 | 0.263 | 0.343 | 0.15 | 0.177 | 0.194 | 0.181 | 0.173 | 0.19
12 | CAL-12T | 1.65 | 1.08 | 1.17 | 1.38 | 0.337 | 0.381 | 0.234 | 0.315 | 1.37 | 1.18 | 1.15 | 1.33 | 0.716 | 0.247 | 0.268 | 0.299 | 0.204 | 0.227
13 | PC-3 [JPC-3] | 1.43 | 1.02 | 1.04 | 1.04 | 1.11 | 1 | 0.826 | 1.01 | 1.29 | 0.984 | 1.22 | 1.16 | 0.925 | 0.881 | 0.939 | 0.857 | 0.972 | 0.764
14 | NCI-H1651 | 0.621 | 0.594 | 0.569 | 0.748 | 0.51 | 0.476 | 0.365 | 0.416 | 0.632 | 0.522 | 0.563 | 0.711 | 0.554 | 0.819 | 0.698 | 0.678 | 0.548 | 0.507
15 | NCI-H650 | 0.947 | 0.835 | 0.959 | 1.02 | 0.529 | 0.515 | 0.42 | 0.486 | 0.947 | 1.15 | 1.08 | 1.18 | 1.11 | 0.65 | 0.759 | 0.728 | 0.641 | 0.536
16 | HOP-62 | 0.421 | 0.36 | 0.276 | 0.361 | 0.708 | 0.786 | 0.434 | 0.693 | 0.311 | 0.343 | 0.305 | 0.409 | 0.271 | 0.363 | 0.442 | 0.31 | 0.281 | 0.302
17 | LC-2-ad | 0.283 | 0.272 | 0.27 | 0.289 | 0.683 | 0.628 | 0.454 | 0.466 | 0.3 | 0.29 | 0.262 | 0.274 | 0.266 | 0.445 | 0.471 | 0.476 | 0.507 | 0.439
18 | EPLC-272H | 0.319 | 0.292 | 0.321 | 0.293 | – | 0.275 | 0.223 | 0.371 | 0.229 | 0.309 | 0.265 | 0.293 | 0.248 | – | 0.17 | 0.258 | 0.248 | 0.292
